Values quoted from earlier work as cited in US4760029A, “Assay for D-1 antagonistic activity of neuroleptic drugs” (Schering Corporation, priority 1984, dated 1988).

Assays:
[1] = J. Pharmacol. Exp. Ther., 226, 462 (1983)
D-1 sites = conditions: Eur. J. Pharmacol. 91, 153(1983)
D-2 sites = conditions: J. Pharmacol. Exp. Ther., 226, 462 (1983)
[2] = test system: dopamine stimulated adenylate cyclase; conditions: J. Pharmacol. Exp. Ther., 226, 462 (1983)

CN1CCc2cc(Cl)c(O)cc2[C@@H](c2ccccc2)C1 [Compound, R-(+)-8-chloro-2,3,4,5-tetrahydro-3-methyl-5-phenyl-1H-3-benzazepin-7-ol]
prolactinemia [1]: no prolactinemia
ability to inhibit ^3 H-cis-(Z)-piflutixol binding (D-1 sites): very potent
displacement of ^3 H-spiperone binding (D-2 sites): weak displacement
blockade of dopamine stimulated adenylate cyclase [2]: potent blockade
